Results on 13 molecules are retold here after PubChem BioAssay (NCI).

Several values for one entry are separate records, joined by “and”; a condition that tells them apart may be missing. Identical values can stand only once.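 In this assay, cells in 96-well plates receive the compound at five concentrations for 48 hours. Endpoints are linearly interpolated between the surrounding concentrations. At the GI50, growth is halved. TGI marks complete inhibition of growth.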 Where only a bound is given, the exact number is not on record here.

Among the test systems are SK-OV-3 ovarian; DU-145 prostate; HCT-116 colon; HOP-62 NSCLC; NCI-H522 lung; OVCAR-8 ovarian; KM12 colon; U251 CNS; EKVX NSCLC; A498 renal.
What all share (assay): growth of human tumour cells (NCI), 48 h

On to `OC(c1ccc(-c2ccccc2)cc1)(c1ccc(-c2ccccc2)cc1)c1ccc(-c2ccccc2)cc1`, for which the TGI in the experiment with SK-OV-3 ovarian, in the experiment on DU-145 prostate, in the experiment on HCT-116 colon, in the experiment with HOP-62 NSCLC, in the experiment on NCI-H522 lung and with OVCAR-8 ovarian was above 100 µM in each case. Besides, the TGI in the experiment on KM12 colon, in the experiment with U251 CNS and in the experiment with EKVX NSCLC was above 100 µM in each case.
For `O=C1CS(=O)(=O)C(c2cccc(Oc3ccccc3)c2)N1c1cccc(Cl)c1Cl` (centres undefined), the TGI was above 100 µM in the experiment with SK-OV-3 ovarian; above 100 µM in the experiment with DU-145 prostate; 40.9 µM in the experiment on HCT-116 colon; above 100 µM with HOP-62 NSCLC; 39.4 µM in the experiment with NCI-H522 lung; 60.1 µM in the experiment with OVCAR-8 ovarian. Moreover, the values for the TGI with KM12 colon, in the experiment with U251 CNS and in the experiment on EKVX NSCLC were above 100 µM, 37.4 µM and 83.7 µM, respectively.
As to `CCN(CC)/C(=C\Cl)Nc1ccccn1`, the TGI with SK-OV-3 ovarian, in the experiment with HCT-116 colon, with HOP-62 NSCLC, in the experiment with NCI-H522 lung, in the experiment on OVCAR-8 ovarian and in the experiment on KM12 colon was above 100 µM in each case. Besides, the TGI with U251 CNS, in the experiment with A498 renal and in the experiment with EKVX NSCLC was above 100 µM each time.
Regarding `C=CCOCCCC(=O)C(=[N+]=[N-])C(=O)OC`, the TGI with SK-OV-3 ovarian, with DU-145 prostate, in the experiment on HCT-116 colon, in the experiment with NCI-H522 lung, in the experiment on OVCAR-8 ovarian and in the experiment on KM12 colon was above 100 µM each time. The TGI with U251 CNS and in the experiment with A498 renal was above 100 µM each time.
Consider `Cc1c(Cl)c(=O)oc2cc(OCC(=O)c3ccccc3)ccc12`, for which the TGI in the experiment on SK-OV-3 ovarian is above 100 µM; with DU-145 prostate, above 100 µM; in the experiment on HOP-62 NSCLC, 67.8 µM; with NCI-H522 lung it was above 100 µM; in the experiment on OVCAR-8 ovarian, above 100 µM; in the experiment on KM12 colon it was above 100 µM. In addition, the TGI with U251 CNS, in the experiment on A498 renal and in the experiment on EKVX NSCLC was above 100 µM each time.
Turning to `CC(=O)C1(c2ccccc2)CCCN(C)CC1` (centres undefined), the TGI with SK-OV-3 ovarian, in the experiment on DU-145 prostate, in the experiment on HCT-116 colon, in the experiment on HOP-62 NSCLC, in the experiment with OVCAR-8 ovarian and in the experiment with KM12 colon was above 100 µM throughout. Besides, the TGI in the experiment on U251 CNS and in the experiment on A498 renal was above 100 µM each time.
With `CN(C)CCNc1c([N+](=O)[O-])cc2c3c(cccc13)C(=O)N(CCN(C)C)C2=O`, the TGI in the experiment with SK-OV-3 ovarian was 7.51 µM; in the experiment on HCT-116 colon, 15.3 µM; in the experiment on HOP-62 NSCLC it was 8.49 µM; in the experiment on NCI-H522 lung, 2.79 µM; in the experiment with OVCAR-8 ovarian it was 3.27 µM; with KM12 colon, above 26.4 µM. Besides, the TGI in the experiment on U251 CNS is 6.44 µM; in the experiment on A498 renal, 4.34 µM; in the experiment with EKVX NSCLC it was 4.37 µM.
With `COc1nc(C#CCCCC#N)nc(OC)n1`, the TGI is above 100 µM in the experiment on SK-OV-3 ovarian; 23.3 µM in the experiment on DU-145 prostate; 41.3 µM in the experiment on HCT-116 colon; 48.7 µM with HOP-62 NSCLC; 29.4 µM in the experiment with NCI-H522 lung; 61.4 µM in the experiment on OVCAR-8 ovarian. The TGI was 36.3 µM in the experiment on KM12 colon, 26.7 µM with U251 CNS, 37.6 µM in the experiment with A498 renal and 39.2 µM in the experiment with EKVX NSCLC.
For the molecule `CN1CCN(CCCOc2ccc3ncnc(Nc4ccc(Oc5cccc(C(F)(F)F)c5)c(Cl)c4)c3c2)CC1`, the GI50 was 1.66 µM in the experiment with DU-145 prostate; 2.78 µM with OVCAR-8 ovarian; 1.86 µM in the experiment on KM12 colon; 1.54 µM with U251 CNS; 1.42 µM in the experiment on A498 renal; 1.16 µM in the experiment with EKVX NSCLC. The TGI with DU-145 prostate is 3.49 µM; in the experiment on OVCAR-8 ovarian it was 10.7 µM; with KM12 colon, 4.01 µM; with U251 CNS it was 3.2 µM; in the experiment with A498 renal, 3.23 µM; with EKVX NSCLC, 3.4 µM.
As to `O=C1CC(N2C(=O)/C(=C/C(Cl)=C\c3ccc([N+](=O)[O-])cc3)SC2=S)C(=O)N1c1ccc(Cl)cc1` (centres undefined), the GI50 was 3.56 µM in the experiment on SK-OV-3 ovarian; 1.35 µM in the experiment with HCT-116 colon; 1.73 µM with HOP-62 NSCLC; 1.73 µM with NCI-H522 lung; 0.832 µM with OVCAR-8 ovarian; 0.478 µM in the experiment with U251 CNS. The GI50 in the experiment with EKVX NSCLC was 3.11 µM. The TGI with SK-OV-3 ovarian was above 100 µM; with HCT-116 colon, 3.04 µM; in the experiment with HOP-62 NSCLC, 5.5 µM; in the experiment on NCI-H522 lung, 4.36 µM; in the experiment with OVCAR-8 ovarian it was above 100 µM; with U251 CNS, 2.47 µM. The same molecule yielded a TGI with EKVX NSCLC above 100 µM.
Consider `CCCCC1Cc2cc(OC)ccc2-c2nc3cc(OC)ccc3n21` (centres undefined) (tested in a mixture with another compound), for which the TGI in the experiment with SK-OV-3 ovarian was 26.4 µM; in the experiment on DU-145 prostate it was 30 µM; with HCT-116 colon, 22.8 µM; in the experiment with HOP-62 NSCLC, 29.2 µM; with NCI-H522 lung, 21.1 µM; in the experiment with OVCAR-8 ovarian, 31.6 µM. The TGI in the experiment with KM12 colon was determined as 43.4 µM; in the experiment with U251 CNS, 28.3 µM; in the experiment on EKVX NSCLC, 25.2 µM.
For the molecule `O=C(NN1C(=O)/C(=C/c2ccc(Cl)cc2)N=C1c1ccccc1)c1c(Cl)c(Cl)c(Cl)c(Cl)c1-c1nc2ccccc2[nH]1`, the TGI with SK-OV-3 ovarian was above 100 µM; with DU-145 prostate, 61.9 µM; in the experiment on HCT-116 colon, 45.2 µM; in the experiment with HOP-62 NSCLC, above 100 µM; in the experiment with NCI-H522 lung it was 83.4 µM; in the experiment on OVCAR-8 ovarian, above 100 µM. Further, the TGI in the experiment on KM12 colon is 28.5 µM; in the experiment on A498 renal it was 44.5 µM; in the experiment with EKVX NSCLC, above 100 µM.
Regarding `Cc1c(N)nc([C@H](CC(N)=O)NC[C@H](N)C(N)=O)nc1C(=O)N[C@H](C(=O)N[C@H](C)[C@@H](O)[C@H](C)C(=O)N[C@H](C(=O)NCCc1nc(-c2nc(C(=O)NCCC[S+](C)C)cs2)cs1)[C@@H](C)O)C(OC1OC(CO)C(O)C(O)C1OC1OC(CO)C(O)C(OC(N)=O)C1O)c1cnc[nH]1` (some centres undefined), the TGI is 20.2 µM and 5.4 µM and 30 µM in the experiment with DU-145 prostate; 20.9 µM [middle of 4 runs] in the experiment on HCT-116 colon; 22.8 µM and 11.2 µM and 15.2 µM with OVCAR-8 ovarian; 24.5 µM and 23 µM and > 100 µM in the experiment on KM12 colon; 19.6 µM and 29 µM and 41.5 µM in the experiment with A498 renal; 22 µM and 25 µM with EKVX NSCLC. Further, the GI50 in the experiment on OVCAR-8 ovarian is 1.49 µM and 1.59 µM; in the experiment on KM12 colon, 4.49 µM; in the experiment with EKVX NSCLC, 25 µM.
